Reference: US4309407A, “Alkenyl-substituted thienylalkanecarboxylic acids and derivatives thereof” (A. Nattermann & Cie. GmbH, priority 1979, dated 1982)

How the values were obtained:
Rat Paw Edema = Rat Paw Edema Test; type: in vivo
Source text: 1. Rat Paw Edema Test [methodology as per Hillebrecht, Arzneim.-Forsch (4), 607 (1954)].

Adjuvans Arthritis = Adjuvans Arthritis Test, Rat, p.o.; type: in vivo; settings: 0.1 mg/kg p.o.
Source text: 3. Adjuvans Arthritis Test, Rat, p.o. [methodology as per C. N. Pearson, Proc. Soc. Exp. Biol. 91, 95-101 (1956)].

granuloma = assay: Granuloma Test (Cotton Pellet Test); type: in vivo, rat
Source text: 2. Granuloma Test (Cotton Pellet Test) [methodology as per R. Meier et al., Experientia 6, 469 (1950)]

rats = assay: Ulcer-Inducing Effect on rats; type: in vivo; settings: rat
Source text: 4. Ulcer-Inducing Effect on rats [methodology according to W. J. R. Whittle, Brit. J. Pharmacol. 55, 242-3 (1975)].

Compound | Inhibiting effect (%) (Rat Paw Edema; 0.1 mg/kg per os) | Inhibiting effect (%) (Rat Paw Edema; dose printed ".0" mg/kg per os) | Inhibiting effect (%) (Adjuvans Arthritis; 14th day p.i.) | Inhibiting effect (%) (Adjuvans Arthritis; 17th day p.i.) | Decrease in weight of granuloma (%) (granuloma; rat dose 0.1 mg/kg per os) | Decrease in weight of granuloma (%) (granuloma; rat dose 1.0 mg/kg per os) | Ulcer-inducing effect (rats; in vivo, 1 mg/kg) | Ulcer-inducing effect (rats; in vivo, 10 mg/kg) | Ulcer-inducing effect (rats; in vivo, 100 mg/kg) | Inhibiting effect (%) (Rat Paw Edema; 3.2 mg/kg per os) | Inhibiting effect (%) (Rat Paw Edema; 5.6 mg/kg per os) | Decrease in weight of granuloma (%) (granuloma; rat dose 3.2 mg/kg per os) | Ulcer-inducing effect (rats; 3.2 mg/kg per os) | Ulcer-inducing effect (rats; 5.6 mg/kg per os) | Ulcer-inducing effect (rats; 7.5 mg/kg per os)
CCCCCC(=O)C=Cc1ccc(CCCCCCCCC(=O)OC)s1 [Example 5, 9-[5-(3-oxooct-1-enyl)thien-2-yl]nonanoic acid methyl ester] | -26% | -38% | -28% | -35% | -24% | -13% | 0 | 0 | 0 |  |  |  |  |  | 
COc1ccc2c(c1)c(CC(=O)O)c(C)n2C(=O)c1ccc(Cl)cc1 [Indomethacin, indomethacin] |  |  | -29% | -37% | -21% |  |  |  |  | -25% | -45% | -27% | ++ | +++ | +++
